Reference: patent US5527828A, “Spin trap nitronyl hindered phenols” (priority 1995, dated 1996)
Where two headings read alike, the source gives them in different places.

Tests used:
[1] = test system: rat liver microsomes; assay: Inhibition of lipid peroxidation (LPO) initiated by tert-butoxyl radicals in rat liver microsomes, TBA test for MDA (Example 1); details: for relative efficiency normalized to 1.0 for PBN: from IC50 data of Example 1; for IC50: read-out: Inhibitor Concentration of 50% Inhibition (IC50), RLM (I), LPO initiated by tert-butoxyl radicals, 37° C., one hour, pH 7.4, average of 5 experiments, interpolated, estimated or measured
[2] = test system: rat brain microsomes; assay: Inhibition of LPO in rat brain microsomes, TBA test for MDA production (Example 3); type: biochemical; details: for IC50: rat brain microsomes; for inhibition of LPO in these systems: conclusion in words on the data obtained
Protocol: Similar tests were performed with rat brain microsomes using the TBA test for MDA production as the result of LPO.

[3] = test system: rat liver microsomes; details: read-out: Inhibitor Concentration of 50% Inhibition (IC50); RLM (II); LPO initiated by NADPH/cytochrome-P450 metabolism of CCl4; average of 5 experiments; interpolated
[4] = test system: rat liver microsomes
[5] = value in parentheses, read-out: IC50 RBM (III)

Row | SMILES | relative efficiency normalized to 1.0 for PBN ([1]; rat liver microsomes) | IC50 [1] [µM] | IC50 ([2]; RBM (III), TBA test for MDA) [µM] | IC50 [3] [µM] | inhibition of LPO in these systems [2] | IC50 [2, 5] [µM] | effectiveness as inhibitor of LPO compared with BHT ([1]; conclusion in words, taking into account experimental precision) | better than BHT as an inhibitor of LPO ([1]; rat liver microsomes, versus BHT) | times more effective as an inhibitor of LPO than PBN ([1]; rat liver microsomes, versus PBN) | IC50 [4] [µM]
1 | Cc1c(C)c2c(c(C)c1O)CCC(C)(CCCC(C)CCCC(C)CCCC(C)C)O2 (stereo not drawn) [Tocopherol, α-tocopherol, reference compound] | 354 | 30 | – | – | – | – | – | – | – | –
2 | CC(C)(C)CC(C)(C)[N+]([O-])=Cc1ccccc1 [OPN, N-tert-octyl C-phenyl nitrone] | 24 | 462 | 76 | 6500 | – | – | – | – | – | –
3 | CC(C)(C)c1cc(C=[N+]([O-])C(C)(C)C)cc(C(C)(C)C)c1O [DBBNP, 2,6-di-tert-butyl-4-(N-tert-butyl) nitronyl phenol] | 2466 | 4.3 | 0.7 | 53 | very good inhibitors | 0.7 | at least as good as BHT and probably better | about 20% | about 2000 times | –
4 | Cc1cc(C(C)(C)C)c(O)c(C(C)(C)C)c1 [BHT, butylated hydroxy toulene, reference compound] | 2000 | 5.3 | – | – | – | – | – | – | – | 55
5 | Cc1cc(C=[N+]([O-])C(C)(C)C)cc(C)c1O [DMBNP, 2,6-dimethyl-4-(N-tert-butyl) nitronyl phenol] | 46 | 230 | 600 | 710 | – | – | – | – | – | –
6 | CC(C)(C)[N+]([O-])=Cc1ccccc1 [PBN, α-phenyl t-butyl nitrone, reference compound] | 1.0 | 9800 | 1000 | 17500 | – | – | – | – | – | –
7 | Cc1cc(C=[N+]([O-])C(C)(C)CC(C)(C)C)cc(C)c1O [DMONP, 2,6-dimethyl-4-(N-tert-octyl) nitronyl phenol] | 646 | 16.4 | 70 | 60 | – | – | – | – | – | –
8 | CC(C)(C)CC(C)(C)[N+]([O-])=Cc1cc(C(C)(C)C)c(O)c(C(C)(C)C)c1 [DBONP, 2,6-di-tert-butyl-4-(N-tert-octyl) nitronyl phenol] | 1828 | 5.8 | 0.3 | 35 | very good inhibitors | 0.3 | – | – | – | –
